According to US7074596B2, “Synthesis and use of anti-reverse mRNA cap analogues” (Board of Supervisors of Louisiana State University And …, priority 2002, dated 2006):

Assays:
elF4E = molecular target: T1, elF4E (Oryctolagus cuniculus, UniProt P29338); experiment: Competitive inhibition of cell-free translation of globin mRNA in the RRL system; assay type: biochemical, rabbit; details: FIG. 3
T1 construct: A micrococcal nuclease-treated RRL (rabbit reticulocyte lysate) system was used for in vitro translation; from tissue; host or cells: rabbit reticulocyte lysate, micrococcal nuclease-treated
Procedure: The ability of cap analogues to inhibit cell-free translation in the RRL system programmed with globin mRNA was measured as described in Cai et al. (1999). Data were fit by least squares minimization to a theoretical rate equation.
We separately tested GpppG, m^7GpppG, and the two ARCAs for their ability to compete with natural globin mRNA for recognition by the translational machinery, and thereby to inhibit translation in an RRL system. […] Natural rabbit globin mRNA was translated at 5 μg/mL in the RRL system, and globin synthesis was detected by incorporation of [^3H]Leu into protein.

SP6 polymerase = molecular target: T2, SP6 polymerase (Enterobacteria phage SP6, UniProt P06221); experiment: Analysis of cap orientation in in vitro-synthesized RNA transcripts by RNase T2 + TAP digestion and anion exchange HPLC; assay type: biochemical, bacteriophage SP6; details: for Product observed RNase T2 + TAP: pGp* (normal orientation of the cap) / Product observed RNase T2 + TAP: 7-methylated pGp* product (reverse orientation of the cap): short RNA (43 bases) from Ncol-digested pSP-luc+, [α-32P]ATP, share of 5′ end labeled digestion product; for Orientation of incorporation into RNA (in words): RNase T2 and TAP digestion, HPLC, FIG. 2
T2 construct: purchased Promega
T2 sequence (P06221 1-874): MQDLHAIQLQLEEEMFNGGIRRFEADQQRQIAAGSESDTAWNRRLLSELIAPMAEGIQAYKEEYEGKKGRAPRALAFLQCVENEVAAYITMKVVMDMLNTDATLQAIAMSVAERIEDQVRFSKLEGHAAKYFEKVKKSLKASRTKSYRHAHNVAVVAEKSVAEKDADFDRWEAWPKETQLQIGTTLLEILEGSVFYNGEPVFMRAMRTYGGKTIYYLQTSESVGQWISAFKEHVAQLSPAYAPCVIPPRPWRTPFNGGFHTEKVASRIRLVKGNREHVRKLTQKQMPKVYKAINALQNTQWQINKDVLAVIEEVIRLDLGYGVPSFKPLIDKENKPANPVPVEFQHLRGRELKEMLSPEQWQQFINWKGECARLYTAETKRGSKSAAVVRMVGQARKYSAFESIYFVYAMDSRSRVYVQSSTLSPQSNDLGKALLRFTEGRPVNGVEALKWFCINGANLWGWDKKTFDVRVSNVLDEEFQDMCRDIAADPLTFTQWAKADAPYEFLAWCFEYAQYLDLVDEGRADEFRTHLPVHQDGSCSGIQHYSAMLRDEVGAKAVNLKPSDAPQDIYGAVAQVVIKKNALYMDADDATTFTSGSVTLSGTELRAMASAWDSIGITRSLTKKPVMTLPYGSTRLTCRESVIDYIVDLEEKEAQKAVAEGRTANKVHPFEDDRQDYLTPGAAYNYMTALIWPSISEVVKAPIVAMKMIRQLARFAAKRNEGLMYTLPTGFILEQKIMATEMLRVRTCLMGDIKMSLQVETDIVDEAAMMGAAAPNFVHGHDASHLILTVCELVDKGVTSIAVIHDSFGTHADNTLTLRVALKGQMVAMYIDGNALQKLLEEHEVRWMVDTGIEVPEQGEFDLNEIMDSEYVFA
Procedure: Mono- and dinucleotides obtained by enzymatic digestion of in vitro-synthesized RNAs were analyzed by HPLC using a Waters 625 instrument with a 996 PDA detector on a 4.5×250 mm Partisil 10SAX/25 column (Whatman). The program for elution of nucleotides comprised water for the first 5 min; a linear gradient of […]; a linear gradient of 87.5 to 500 mM of KH2PO4 over 30 min; and isocratic elution at 500 mM KH2PO4 for 21 min—all at a flow rate of 1 mL/min.
Two lengths of RNA, either uncapped or capped with one of the cap analogues, were synthesized by in vitro transcription. The DNA template used for both lengths of RNA was pSP−luc+ (Promega), which contains an SP6 bacteriophage promoter and a sequence encoding luciferase. To generate the short RNAs (43 bases exclusive of the cap), the plasmid was digested with Ncol. To generate the long RNAs (1706 bases, containing the entire luciferase coding region), the plasmid was digested with EcoRl. A typical 20 μL in vitro transcription reaction contained 40 mM Tris-HCl, pH 7.9, 6 mM MgCl2, 2 mM spermidine, 10 mM DTT, 2 μg BSA, 20 units of RNasin (Promega), 0.5 mM ATP, 0.5 mM CTP, 0.5 mM UTP, 0.1 mM GTP, 1 mM cap analogue (GpppG, m7GpppG, m^73′dGpppG, or m2^7,O3′GpppG), 0.2–1.0 μg DNA, and 20 units of SP6 polymerase (Promega). Reactions to synthesize the short RNAs also contained 28 μCi of [α-^32P]ATP (ICN), and those to synthesize the long RNAs contained 0.8 μCi of [α-^32P]CTP (ICN). Reaction mixtures were incubated for 60 min at 37° C., extracted with phenol and chloroform, and the solution was made 2 M in sodium acetate. The nucleic acids were then precipitated with 3 volumes of ethanol on dry ice for 5 min, and the mixture was centrifuged at 14,000 rpm for 30 min. The resulting pellet was dissolved in water, and the solution was made 0.2 M in sodium acetate. The nucleic acid was precipitated with 2.5 volumes of ethanol at 4° C. for 30 min, and the mixture was centrifuged at 14,000 rpm for 30 min. The pellet was allowed to air-dry and then dissolved in diethylpyrocarbonate-treated water.
The short RNAs were digested with 67 U RNase T2 (Life Technologies) in 15 μL of 0.14 M sodium acetate, pH 4.6, at 37° C. for 60 min. In some cases, the RNAs were subjected to a two-step digestion instead. The first digestion was with 10 U TAP (tobacco acid pyrophosphatase) (Epicentre Technologies) in 5 μL of 50 mM sodium acetate, pH 6.0, 1 mM EDTA, 0.1% β-mercaptoethanol, and 0.01% Triton X-100 at 37° C. for 60 min. The digestion was continued for 60 min at 37° C. with 67 U RNase T2 in a final volume of 16 μL of 0.12 M sodium acetate, pH 4.6. Samples were analyzed without further treatment by anion exchange HPLC as described above.
The structure of the ARCAs was designed to prevent incorporation into RNA in the reverse orientation. […] To obtain a higher proportion of radioactivity in the cap versus the internal positions, a shorter DNA template was produced by cleaving pSP−luc+ with Ncol instead of EcoRl. This digestion was expected to yield an RNA product of 43 bases (plus the cap).
RNase T2 digests RNA with no base specificity. Thus, it was expected to generate primarily 3′-NMPs from this RNA. Those nucleotide residues that were located 5′ to an A residue would acquire a ^32P-labeled 3′-phosphate by nearest-neighbor transfer. The pyrophosphate bonds in the cap, however, are not susceptible to RNase T2. Since the first nucleotide residue after the cap in the synthetic RNA is an A, the α-phosphate of [α-^32P]ATP would be transferred to the cap following RNase T2 digestion.

[1] = system: RRL (rabbit reticulocyte lysate) system; experiment: Translation of capped luciferase mRNAs in the RRL system (luciferase activity); assay type: biochemical; details: translated 60 min in RRL, slope of luciferase activity versus mRNA concentration, FIG. 4
Text: Two lengths of RNA, either uncapped or capped with one of the cap analogues, were synthesized by in vitro transcription. The DNA template used for both lengths of RNA was pSP−luc+ (Promega), which contains an SP6 bacteriophage promoter and a sequence encoding luciferase. To generate the short RNAs (43 bases exclusive of the cap), the plasmid was digested with Ncol. To generate the long RNAs (1706 bases, containing the entire luciferase coding region), the plasmid was digested with EcoRl. […]
A micrococcal nuclease-treated RRL (rabbit reticulocyte lysate) system was used for in vitro translation as described in A. Cai et al., “Quantitative assessment of mRNA cap analogs as inhibitors of in vitro translation,” Biochemistry, vol.38, pp. 8538–8547 (1999). In some cases, the mRNA used in this system was natural rabbit globin mRNA, and protein synthesis was measured by incorporation of [^3H]Leu into a trichloroacetic acid-precipitable form. […]
FIG. 4 depicts the translational activity of the ARCA-capped mRNAs. […] The RNAs were translated for 60 min in the RRL system, and luciferase activity was measured in triplicate by luminometry (RLU, relative light units). […]

T1 sequence (P29338 whole entry): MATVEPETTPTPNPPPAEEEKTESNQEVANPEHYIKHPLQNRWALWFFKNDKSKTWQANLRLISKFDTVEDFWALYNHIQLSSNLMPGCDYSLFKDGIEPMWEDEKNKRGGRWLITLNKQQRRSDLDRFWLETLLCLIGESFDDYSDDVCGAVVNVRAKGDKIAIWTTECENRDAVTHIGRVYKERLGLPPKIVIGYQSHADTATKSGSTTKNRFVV

Row | SMILES | Inhibition of translation (in words) (elF4E; natural rabbit globin mRNA in RRL system) | Product observed RNase T2 + TAP: pGp* (normal orientation of the cap) (SP6 polymerase) [%] | Translational efficiency of capped luciferase mRNA (in words) [1] | Orientation of incorporation into RNA (in words) (SP6 polymerase) | Product observed RNase T2 + TAP: 7-methylated pGp* product (reverse orientation of the cap) (SP6 polymerase) [%] | Ki (elF4E; natural rabbit globin mRNA 5 μg/mL, [3H]Leu incorporation, least-squares fit of translation data, read-out: Kl, dissociation constant for the cap analogue•elF4E complex) [µM] | Extent of reverse capping (SP6 polymerase; experiments of FIG. 2 and Table 3)
1 | Nc1nc2c(ncn2[C@@H]2O[C@H](COP(=O)(O)OP(=O)(O)OP(=O)(O)OC[C@H]3O[C@@H](n4cnc5c(=O)[nH]c(N)nc54)[C@H](O)[C@@H]3O)[C@@H](O)[C@H]2O)c(=O)[nH]1 [GpppG, reference compound] | did not act as an inhibitor | 100 |  |  |  |  | 
2 | CO[C@H]1[C@@H](O)[C@H](n2c[n+](C)c3c(=O)[nH]c(N)nc32)O[C@@H]1COP(=O)(O)OP(=O)(O)OP(=O)(O)OC[C@H]1O[C@@H](n2cnc3c(=O)[nH]c(N)nc32)[C@H](O)[C@@H]1O [m2^7,O3′GpppG, P^1-3′-O, 7-Dimethylguanosine-5′P^3-guanosine-5′triphosphate] |  | 100 | more efficient in translation than m^7GpppG-capped mRNA | incorporated in only one orientation | 0 |  | 
3 | Cn1c[n+](C2OC(COP(=O)(O)OP(=O)(O)OP(=O)(O)OCC3OC(n4cnc5c(=O)[nH]c(N)nc54)C(O)C3O)C(O)C2O)c2nc(N)nc([O-])c21 (centres unmarked) [m^7GpppG, m^7G(5′)ppp(5′)G, reference compound] |  | 67 |  |  | 33 | 27.8 ± 12.6 | approximately 33%
4 | C[n+]1cn([C@@H]2O[C@H](COP(=O)(O)OP(=O)(O)OP(=O)(O)OC[C@H]3O[C@@H](n4cnc5c(=O)[nH]c(N)nc54)[C@H](O)[C@@H]3O)C[C@H]2O)c2nc(N)[nH]c(=O)c21 [m^73′dGpppG, P^1-3′-Deoxy-7-methylguanosine-5′ P^3-guanosine-5′triphosphate] |  | 100 | more efficient in translation than m^7GpppG-capped mRNA | incorporated in only a single orientation | 0 |  | 
